From PubChem BioAssay (NCI)
“And” between values parts separate entries of the source, which are not always exact repeats. Equal entries are not always repeated.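 Compound exposure: 48 hours, 5 concentrations, 96-well plates. At the GI50, growth is halved. The concentration for full growth arrest is given as TGI.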

Columns and labels:
Test in all cases: NCI anticancer screen, dose series, 48 h
MALME-3M melanoma = system: MALME-3M melanoma
SK-MEL-5 melanoma = system: SK-MEL-5 melanoma
TK-10 renal = system: TK-10 renal
MOLT-4 leukemia = system: MOLT-4 leukemia
SK-OV-3 ovarian = system: SK-OV-3 ovarian
KM12 colon = system: KM12 colon
SNB-19 CNS = system: SNB-19 CNS
SK-MEL-28 melanoma = system: SK-MEL-28 melanoma
RPMI-8226 leukemia = system: RPMI-8226 leukemia
MDA-MB-435 = system: MDA-MB-435

SMILES: CCOC(=O)c1ccc(N2C(=O)Cc3ccccc3C2=O)cc1
- TGI (MALME-3M melanoma): > 100 µM
- TGI (SK-MEL-5 melanoma): > 100 µM
- TGI (TK-10 renal): > 100 µM
- TGI (MOLT-4 leukemia): > 100 µM
- TGI (SK-OV-3 ovarian): > 100 µM
- TGI (KM12 colon): > 100 µM
- TGI (SNB-19 CNS): > 100 µM
- TGI (SK-MEL-28 melanoma): > 100 µM
- TGI (RPMI-8226 leukemia): > 100 µM

SMILES: CCOC(=O)C1=C(Nc2ccc(Br)cc2)OC/C1=N\NC(=O)c1ccccc1O
- TGI (MALME-3M melanoma): > 100 µM
- TGI (SK-MEL-5 melanoma): > 100 µM
- TGI (TK-10 renal): > 100 µM
- TGI (MOLT-4 leukemia): 35.2 µM
- TGI (SK-OV-3 ovarian): > 67.7 µM
- TGI (KM12 colon): > 100 µM
- TGI (SNB-19 CNS): > 100 µM
- TGI (SK-MEL-28 melanoma): > 100 µM
- TGI (RPMI-8226 leukemia): 49.4 µM

SMILES: CCOC(=O)C(C(=O)OCC)C(=O)c1ccccc1C(=O)c1ccccc1
- TGI (MDA-MB-435): > 100 µM
- TGI (MALME-3M melanoma): > 100 µM
- TGI (SK-MEL-5 melanoma): > 100 µM
- TGI (TK-10 renal): > 100 µM
- TGI (MOLT-4 leukemia): 83.6 µM
- TGI (SK-OV-3 ovarian): > 100 µM
- TGI (KM12 colon): > 100 µM
- TGI (SNB-19 CNS): > 100 µM

SMILES: CCN(CC)CCn1c2ccc(OC)cc2c2sc3cc(OC)ccc3c(=O)c21
- GI50 (MDA-MB-435): 1.73 µM
- TGI (MDA-MB-435): 3.22 µM
- GI50 (MALME-3M melanoma): 1.59 µM
- TGI (MALME-3M melanoma): 3.18 µM
- GI50 (SK-MEL-5 melanoma): 1.74 µM
- TGI (SK-MEL-5 melanoma): 3.12 µM
- GI50 (TK-10 renal): 2.33 µM
- TGI (TK-10 renal): 8.15 µM
- GI50 (MOLT-4 leukemia): 0.383 µM
- TGI (MOLT-4 leukemia): 1.89 µM
- GI50 (SK-OV-3 ovarian): 3.07 µM
- TGI (SK-OV-3 ovarian): 10.3 µM
- GI50 (KM12 colon): 2 µM
- TGI (KM12 colon): 4.32 µM
- GI50 (SNB-19 CNS): 2.43 µM
- TGI (SNB-19 CNS): 10 µM
- GI50 (SK-MEL-28 melanoma): 1.7 µM
- TGI (SK-MEL-28 melanoma): 3.12 µM

SMILES: COc1cccc(N=N/C(=N\NC(=O)c2cc(Br)ccc2O)c2ccc(N(CCC#N)CCC#N)cc2OC)c1
- GI50 (MDA-MB-435): 67.8 µg/mL
- TGI (MDA-MB-435): > 150 µg/mL
- GI50 (MALME-3M melanoma): 57.7 µg/mL
- TGI (MALME-3M melanoma): 142 µg/mL
- GI50 (SK-MEL-5 melanoma): 35.1 µg/mL
- TGI (SK-MEL-5 melanoma): 97.1 µg/mL
- GI50 (MOLT-4 leukemia): 54.7 µg/mL
- TGI (MOLT-4 leukemia): > 150 µg/mL
- GI50 (SK-OV-3 ovarian): 72.6 µg/mL
- TGI (SK-OV-3 ovarian): > 150 µg/mL
- GI50 (KM12 colon): 26.9 µg/mL
- TGI (KM12 colon): 83.4 µg/mL
- GI50 (SNB-19 CNS): 68.9 µg/mL
- TGI (SNB-19 CNS): > 150 µg/mL
- GI50 (SK-MEL-28 melanoma): 62.7 µg/mL
- TGI (SK-MEL-28 melanoma): > 150 µg/mL
- GI50 (RPMI-8226 leukemia): 41.4 µg/mL
- TGI (RPMI-8226 leukemia): > 150 µg/mL

SMILES: CC(C)C[C@H](NC(=O)[C@@H](NC(=O)c1cccc(-c2ccccc2)n1)[C@@H](C)O)B(O)O
- GI50 (MALME-3M melanoma): 0.00297 µM
- TGI (MALME-3M melanoma): 0.00838 µM and < 0.0196 µM
- GI50 (SK-MEL-5 melanoma): 0.00421 µM
- TGI (SK-MEL-5 melanoma): 0.0177 µM and < 0.0114 µM
- GI50 (TK-10 renal): 0.00352 µM
- TGI (TK-10 renal): 0.0592 µM and < 0.0273 µM
- GI50 (MOLT-4 leukemia): 0.00289 µM
- TGI (MOLT-4 leukemia): 0.00887 µM
- GI50 (SK-OV-3 ovarian): 0.0474 µM and 0.0325 µM
- TGI (SK-OV-3 ovarian): 7.82 µM
- GI50 (KM12 colon): 0.0132 µM and 0.0127 µM
- TGI (KM12 colon): 0.0672 µM and 0.022 µM
- GI50 (SNB-19 CNS): 0.616 µM and 0.106 µM
- TGI (SNB-19 CNS): > 52.4 µM
- GI50 (SK-MEL-28 melanoma): 0.00473 µM
- TGI (SK-MEL-28 melanoma): 0.0419 µM and 0.0563 µM
- TGI (RPMI-8226 leukemia): < 0.0108 µM

SMILES: N#Cc1nc2c(S(=O)(=O)c3ccccc3)c(N)n(Cc3ccc(Cl)cc3)c2nc1C#N
- GI50 (MDA-MB-435): 19.4 µM
- TGI (MDA-MB-435): > 50 µM
- GI50 (SK-MEL-5 melanoma): 11.5 µM
- TGI (SK-MEL-5 melanoma): > 50 µM
- GI50 (TK-10 renal): 12.2 µM
- TGI (TK-10 renal): 26.5 µM
- GI50 (SK-OV-3 ovarian): 9.9 µM
- TGI (SK-OV-3 ovarian): 29.3 µM
- GI50 (KM12 colon): 17.1 µM
- TGI (KM12 colon): > 50 µM
- GI50 (SNB-19 CNS): 13.8 µM
- TGI (SNB-19 CNS): 41 µM
- GI50 (SK-MEL-28 melanoma): 15.3 µM
- TGI (SK-MEL-28 melanoma): > 50 µM
- GI50 (RPMI-8226 leukemia): 14.1 µM
- TGI (RPMI-8226 leukemia): > 50 µM

SMILES: CS/C(c1ccccc1)=[N+](\[O-])Cc1ccccc1
- TGI (MALME-3M melanoma): > 100 µM
- TGI (SK-MEL-5 melanoma): > 100 µM
- TGI (TK-10 renal): > 100 µM
- TGI (MOLT-4 leukemia): > 100 µM
- TGI (SK-OV-3 ovarian): > 100 µM
- TGI (KM12 colon): > 100 µM
- TGI (SNB-19 CNS): > 100 µM
- TGI (SK-MEL-28 melanoma): > 100 µM
- TGI (RPMI-8226 leukemia): 55.3 µM

SMILES: Cc1cc(N(CCCNc2ccnc3cc(Cl)ccc23)Cc2ccc3c(c2)OCO3)nc(N2CCCCC2)n1
- GI50 (MDA-MB-435): 1.72 µM
- TGI (MDA-MB-435): 3.27 µM
- GI50 (MALME-3M melanoma): 1.97 µM
- TGI (MALME-3M melanoma): 3.75 µM
- GI50 (SK-MEL-5 melanoma): 1.75 µM
- TGI (SK-MEL-5 melanoma): 3.14 µM
- GI50 (TK-10 renal): 1.91 µM
- TGI (TK-10 renal): 4.01 µM
- GI50 (SK-OV-3 ovarian): 2.74 µM
- TGI (SK-OV-3 ovarian): 8.46 µM
- GI50 (KM12 colon): 2.15 µM
- TGI (KM12 colon): 5.39 µM
- GI50 (SNB-19 CNS): 3.47 µM
- TGI (SNB-19 CNS): 15.1 µM
- GI50 (SK-MEL-28 melanoma): 1.94 µM
- TGI (SK-MEL-28 melanoma): 3.66 µM
- GI50 (RPMI-8226 leukemia): 1.91 µM
- TGI (RPMI-8226 leukemia): 4.93 µM

SMILES: Cc1ccc(C2=C(c3ccc(C)cc3)C(c3ccc(C)cc3)=C(c3ccc(C)cc3)C2=O)cc1
- TGI (MALME-3M melanoma): > 100 µM
- TGI (SK-MEL-5 melanoma): > 100 µM
- TGI (TK-10 renal): > 100 µM
- TGI (MOLT-4 leukemia): > 100 µM
- TGI (SK-OV-3 ovarian): > 100 µM
- TGI (KM12 colon): > 100 µM
- TGI (SNB-19 CNS): > 100 µM
- TGI (SK-MEL-28 melanoma): > 100 µM
- TGI (RPMI-8226 leukemia): > 100 µM

SMILES: COc1ccc(-c2ccc(-c3ccc(C(=N)N)cn3)o2)cc1Cl
- GI50 (MDA-MB-435): 1.74 µM
- TGI (MDA-MB-435): 3.33 µM
- GI50 (MALME-3M melanoma): 1.81 µM
- TGI (MALME-3M melanoma): 3.48 µM
- GI50 (SK-MEL-5 melanoma): 1.6 µM
- TGI (SK-MEL-5 melanoma): 2.97 µM
- GI50 (TK-10 renal): 3.19 µM
- TGI (TK-10 renal): 9.47 µM
- GI50 (SK-OV-3 ovarian): 10.6 µM
- TGI (SK-OV-3 ovarian): 22.8 µM
- GI50 (SNB-19 CNS): 1.79 µM
- TGI (SNB-19 CNS): 3.4 µM
- GI50 (SK-MEL-28 melanoma): 1.69 µM
- TGI (SK-MEL-28 melanoma): 3.22 µM

SMILES: Nc1nccc2c1ncn2C1OC(CO)C(O)C1O (configuration not stated)
- GI50 (MALME-3M melanoma): > 100 µM
- TGI (MALME-3M melanoma): > 100 µM
- GI50 (SK-MEL-5 melanoma): > 100 µM
- TGI (SK-MEL-5 melanoma): > 100 µM
- GI50 (TK-10 renal): > 100 µM
- TGI (TK-10 renal): > 100 µM
- GI50 (MOLT-4 leukemia): > 100 µM
- TGI (MOLT-4 leukemia): > 100 µM
- GI50 (SK-OV-3 ovarian): > 100 µM
- TGI (SK-OV-3 ovarian): > 100 µM
- GI50 (KM12 colon): 54.5 µM
- TGI (KM12 colon): > 100 µM
- GI50 (SNB-19 CNS): > 100 µM
- TGI (SNB-19 CNS): > 100 µM
- GI50 (SK-MEL-28 melanoma): > 100 µM
- TGI (SK-MEL-28 melanoma): > 100 µM
- GI50 (RPMI-8226 leukemia): > 100 µM
- TGI (RPMI-8226 leukemia): > 100 µM

SMILES: CC(=O)/C=C1\CC(=O)Nc2ccccc2N1
- TGI (MALME-3M melanoma): > 100 µM
- TGI (SK-MEL-5 melanoma): > 100 µM
- TGI (TK-10 renal): > 100 µM
- TGI (MOLT-4 leukemia): > 100 µM
- TGI (SK-OV-3 ovarian): > 100 µM
- TGI (KM12 colon): > 100 µM
- TGI (SNB-19 CNS): > 100 µM
- TGI (SK-MEL-28 melanoma): > 100 µM
- TGI (RPMI-8226 leukemia): > 100 µM
